Assay results published in ChEMBL document CHEMBL1201862, “PubChem BioAssay data set” (2004).
Activity calls are given as the source filed them.

What was measured:
[1] = target: Dual specificity tyrosine-phosphorylation-regulated kinase 1A (Rattus norvegicus, UniProt Q63470); assay type: biochemical, Homo sapiens
[2] = target: T1, Microphthalmia-associated transcription factor (Homo sapiens, UniProt O75030); assay: TRPM1 promoter luciferase signal decrease, dose response, MITF inhibitor project, cell-based, SK-MEL-5, cherry-picked, set 3 (AID 493073); assay type: functional
T1 sequence (O75030 whole entry): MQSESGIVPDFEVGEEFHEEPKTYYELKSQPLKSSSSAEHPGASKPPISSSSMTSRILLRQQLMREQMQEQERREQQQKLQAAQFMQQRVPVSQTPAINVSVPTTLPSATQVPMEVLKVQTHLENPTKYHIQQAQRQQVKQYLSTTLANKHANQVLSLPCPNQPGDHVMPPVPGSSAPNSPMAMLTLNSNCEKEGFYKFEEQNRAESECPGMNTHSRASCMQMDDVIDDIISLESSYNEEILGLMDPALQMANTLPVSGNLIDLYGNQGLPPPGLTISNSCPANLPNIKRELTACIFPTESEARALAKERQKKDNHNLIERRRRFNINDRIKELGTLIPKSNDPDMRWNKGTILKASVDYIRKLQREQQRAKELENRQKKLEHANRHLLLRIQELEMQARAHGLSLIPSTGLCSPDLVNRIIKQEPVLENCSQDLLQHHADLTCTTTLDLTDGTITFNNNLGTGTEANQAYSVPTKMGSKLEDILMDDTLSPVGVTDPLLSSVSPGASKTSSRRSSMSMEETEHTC

[3] = target: Cytochrome P450 3A4 (Homo sapiens, UniProt P08684);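 also: CYP3A4 tested as one member of a cytochrome P450 panel screen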
Cytochrome P450 3A4, sequence (P08684 whole entry): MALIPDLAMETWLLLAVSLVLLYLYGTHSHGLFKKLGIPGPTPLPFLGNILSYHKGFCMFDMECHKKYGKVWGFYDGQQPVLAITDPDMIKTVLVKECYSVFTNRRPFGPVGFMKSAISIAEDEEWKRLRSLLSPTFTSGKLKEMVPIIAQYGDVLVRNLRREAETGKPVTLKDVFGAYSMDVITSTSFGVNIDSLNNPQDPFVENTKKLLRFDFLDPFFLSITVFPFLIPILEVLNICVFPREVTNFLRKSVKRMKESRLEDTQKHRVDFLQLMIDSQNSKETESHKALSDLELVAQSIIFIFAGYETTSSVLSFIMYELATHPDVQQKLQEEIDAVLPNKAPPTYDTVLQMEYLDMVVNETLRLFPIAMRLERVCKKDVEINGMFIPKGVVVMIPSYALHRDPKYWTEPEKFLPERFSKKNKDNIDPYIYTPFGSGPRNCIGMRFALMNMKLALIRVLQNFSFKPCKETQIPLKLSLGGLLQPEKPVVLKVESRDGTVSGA

[4] = target: T2, Endoribonuclease toxin MazF (Escherichia coli K-12, UniProt P0AE70); assay: MazF toxin RNase activators, dose response, biochemical, fluorescence, single-stranded RNA substrate, uHTS hits (AID 588481); assay type: functional
T2 sequence (P0AE70 whole entry): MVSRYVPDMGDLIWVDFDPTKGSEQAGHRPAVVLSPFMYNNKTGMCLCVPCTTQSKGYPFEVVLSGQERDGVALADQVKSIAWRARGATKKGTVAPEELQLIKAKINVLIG

[5] = system: H4; assay: Luminescence Cell-Based Dose Response HTS to Identify Activators of 5'UTR Stem-Loop Driven Prion Protein mRNA Translation in H4 Neuroglioblastoma Cells. [Related pubchem assays: 1829 (Project Summary), 1814 (Primary HTS)]; assay type: functional; settings: Homo sapiens
[6] = Luminescence Cell-Based Dose Response HTS to Identify Activators of Luciferase Translation or Activity in H4 […] Cells. [Related pubchem assays: 1829 (Project Summary), 1814 (Primary HTS)]; assay type: functional
[7] = target: T3, Rac GTPase-activating protein 1 (Homo sapiens, UniProt Q9H0H5); assay: MgcRacGAP GTPase-activating activity inhibitors, confirmation, biochemical, ADP Hunter fluorescence, primary and confirmatory (AID 624330); assay type: functional
T3 sequence (Q9H0H5 whole entry): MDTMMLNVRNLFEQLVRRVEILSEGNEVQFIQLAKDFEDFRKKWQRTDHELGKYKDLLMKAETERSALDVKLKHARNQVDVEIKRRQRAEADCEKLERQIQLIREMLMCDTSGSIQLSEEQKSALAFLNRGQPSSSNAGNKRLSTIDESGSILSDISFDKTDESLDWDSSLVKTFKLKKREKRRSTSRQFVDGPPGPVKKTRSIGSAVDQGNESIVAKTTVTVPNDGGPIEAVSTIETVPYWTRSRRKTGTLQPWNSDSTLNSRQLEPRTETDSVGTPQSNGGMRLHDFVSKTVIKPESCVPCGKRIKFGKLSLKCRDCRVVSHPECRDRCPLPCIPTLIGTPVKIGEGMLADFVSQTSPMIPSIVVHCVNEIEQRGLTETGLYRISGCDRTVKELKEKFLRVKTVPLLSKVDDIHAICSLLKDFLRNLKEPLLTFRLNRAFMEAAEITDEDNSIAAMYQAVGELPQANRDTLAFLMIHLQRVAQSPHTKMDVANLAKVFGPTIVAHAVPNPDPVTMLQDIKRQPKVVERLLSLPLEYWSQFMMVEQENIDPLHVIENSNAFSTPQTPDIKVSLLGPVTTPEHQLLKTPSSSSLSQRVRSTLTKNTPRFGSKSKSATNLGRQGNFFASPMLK

[8] = target: T2, Endoribonuclease toxin MazF; assay: fluorescent RNA oligo signal without MazF, dose response, counter-screen for MazEF activator project, biochemical, fluorescence, single-stranded RNase substrate (AID 588502); assay type: functional
[9] = Luminescence Cell-Based Dose Confirmation HTS to Identify Activators of 5'UTR Stem-Loop Driven Alpha-Synuclein mRNA Translation in H4 Neuroglioblastoma Cells. [Related pubchem assays: 1829 (Project Summary), 1814 (Primary HTS)]; assay type: functional
[10] = target: T4, Methionyl-tRNA synthetase, putative (Trypanosoma brucei brucei, UniProt Q38C91); assay type: functional, Trypanosoma brucei brucei strain 927/4 GUTat10.1
T4 sequence (Q38C91 whole entry): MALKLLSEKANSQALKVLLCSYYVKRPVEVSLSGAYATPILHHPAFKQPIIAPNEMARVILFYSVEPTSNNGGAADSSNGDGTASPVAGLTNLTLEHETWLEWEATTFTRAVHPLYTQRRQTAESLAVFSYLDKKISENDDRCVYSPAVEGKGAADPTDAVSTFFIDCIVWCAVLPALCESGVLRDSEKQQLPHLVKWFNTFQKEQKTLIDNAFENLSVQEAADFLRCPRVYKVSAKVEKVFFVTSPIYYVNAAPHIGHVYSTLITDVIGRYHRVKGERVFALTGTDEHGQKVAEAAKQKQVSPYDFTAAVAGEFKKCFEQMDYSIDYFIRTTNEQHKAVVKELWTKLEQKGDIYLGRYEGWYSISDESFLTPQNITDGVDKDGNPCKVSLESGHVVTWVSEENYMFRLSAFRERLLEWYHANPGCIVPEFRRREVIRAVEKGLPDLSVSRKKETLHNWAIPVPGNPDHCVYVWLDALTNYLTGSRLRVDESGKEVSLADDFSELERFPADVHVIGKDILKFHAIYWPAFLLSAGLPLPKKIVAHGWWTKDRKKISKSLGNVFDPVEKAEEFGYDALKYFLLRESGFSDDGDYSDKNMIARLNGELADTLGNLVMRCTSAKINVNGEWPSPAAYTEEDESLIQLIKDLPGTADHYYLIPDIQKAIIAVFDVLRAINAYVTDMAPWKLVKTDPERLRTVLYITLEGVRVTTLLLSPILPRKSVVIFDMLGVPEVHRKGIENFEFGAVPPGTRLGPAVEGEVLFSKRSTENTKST

[11] = target: T4, Methionyl-tRNA synthetase, putative; assay type: functional, Trypanosoma brucei brucei strain 927/4 GUTat10.1; remark: listed apart in the source
[12] = Counterscreen for inhibitors of Trypanosoma brucei methionyl tRNA synthetase (MetRS): Luminescence-based cell-based high throughput dose response assay to identify compounds that are cytotoxic to Jurkat human T lymphocyte cells.; assay type: functional
[13] = target: T5, Mitochondrial peptide methionine sulfoxide reductase (Bos taurus, UniProt P54149); assay: Absorbance-based biochemical high throughput dose response assay for activators of Methionine sulfoxide reductase A (MsrA).; assay type: functional
T5 sequence (P54149 whole entry): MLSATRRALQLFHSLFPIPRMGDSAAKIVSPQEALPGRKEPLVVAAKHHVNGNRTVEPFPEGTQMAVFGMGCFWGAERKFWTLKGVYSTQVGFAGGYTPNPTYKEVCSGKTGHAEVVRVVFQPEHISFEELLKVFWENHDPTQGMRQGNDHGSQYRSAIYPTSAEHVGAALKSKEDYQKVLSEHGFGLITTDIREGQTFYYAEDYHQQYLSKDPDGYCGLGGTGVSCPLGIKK

[14] = target: T6, Type-1 angiotensin II receptor (Homo sapiens, UniProt P30556); assay: AT1 receptor antagonists, dose response, selectivity assay for APJ receptor antagonist project, cell-based, uHTS hits (AID 463214); assay type: functional;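 also: antagonist potency against angiotensin II stimulated AT1 response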
T6 sequence (P30556 whole entry): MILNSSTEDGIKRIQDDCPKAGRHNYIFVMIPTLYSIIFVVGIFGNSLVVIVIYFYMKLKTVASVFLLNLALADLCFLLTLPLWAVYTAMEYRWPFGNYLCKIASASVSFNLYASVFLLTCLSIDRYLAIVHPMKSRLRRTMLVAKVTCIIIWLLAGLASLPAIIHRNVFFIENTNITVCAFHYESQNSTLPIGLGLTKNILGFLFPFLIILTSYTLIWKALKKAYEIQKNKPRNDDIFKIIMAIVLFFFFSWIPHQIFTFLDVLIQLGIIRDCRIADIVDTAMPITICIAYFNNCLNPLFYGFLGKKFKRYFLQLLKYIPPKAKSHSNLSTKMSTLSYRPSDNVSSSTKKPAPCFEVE

[15] = target: Beta-galactosidase (Escherichia coli, UniProt Q8VNN2); assay: PubChem AID 485352; assay type: functional
Beta-galactosidase, sequence (Q8VNN2 whole entry): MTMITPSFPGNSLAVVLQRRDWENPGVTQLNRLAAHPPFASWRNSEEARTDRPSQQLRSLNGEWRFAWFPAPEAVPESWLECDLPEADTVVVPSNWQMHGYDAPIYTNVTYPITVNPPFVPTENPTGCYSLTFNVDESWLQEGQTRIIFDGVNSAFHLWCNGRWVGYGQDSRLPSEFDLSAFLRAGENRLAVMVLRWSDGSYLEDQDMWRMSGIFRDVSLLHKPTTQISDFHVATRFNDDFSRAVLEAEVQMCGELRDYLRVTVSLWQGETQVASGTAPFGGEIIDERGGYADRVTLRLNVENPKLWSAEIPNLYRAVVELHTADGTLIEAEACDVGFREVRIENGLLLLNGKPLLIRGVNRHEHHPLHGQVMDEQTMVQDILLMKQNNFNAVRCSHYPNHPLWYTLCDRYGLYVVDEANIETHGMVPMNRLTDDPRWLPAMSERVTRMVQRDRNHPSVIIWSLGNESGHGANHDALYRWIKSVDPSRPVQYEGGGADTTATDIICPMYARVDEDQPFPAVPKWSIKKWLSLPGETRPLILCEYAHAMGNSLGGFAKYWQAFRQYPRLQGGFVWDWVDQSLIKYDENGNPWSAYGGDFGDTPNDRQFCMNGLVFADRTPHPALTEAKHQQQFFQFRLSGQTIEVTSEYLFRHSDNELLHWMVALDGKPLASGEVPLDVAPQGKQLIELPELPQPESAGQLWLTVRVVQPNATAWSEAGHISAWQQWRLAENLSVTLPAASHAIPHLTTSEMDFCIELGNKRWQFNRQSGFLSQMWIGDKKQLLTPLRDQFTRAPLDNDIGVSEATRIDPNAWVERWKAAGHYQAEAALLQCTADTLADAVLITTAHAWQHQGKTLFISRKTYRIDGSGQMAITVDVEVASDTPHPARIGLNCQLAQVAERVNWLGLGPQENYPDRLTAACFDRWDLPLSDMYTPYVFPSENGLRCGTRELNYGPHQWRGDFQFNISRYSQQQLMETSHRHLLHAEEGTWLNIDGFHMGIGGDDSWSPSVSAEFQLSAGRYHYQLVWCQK

[16] = target: FAD-linked sulfhydryl oxidase ALR (Homo sapiens, UniProt P55789); assay: inhibitors of human ALR sulfhydryl oxidase, dose response, biochemical, H2O2 detection, luminescence, cherry-pick (AID 493248)
FAD-linked sulfhydryl oxidase ALR, sequence (P55789 whole entry, the tested form may be a part): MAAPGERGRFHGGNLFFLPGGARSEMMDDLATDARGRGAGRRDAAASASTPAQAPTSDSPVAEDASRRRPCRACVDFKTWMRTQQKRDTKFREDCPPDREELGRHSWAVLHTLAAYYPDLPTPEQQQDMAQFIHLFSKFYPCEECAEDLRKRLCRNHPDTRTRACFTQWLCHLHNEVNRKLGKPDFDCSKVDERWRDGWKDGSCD

[17] = target: Photoreceptor-specific nuclear receptor (Homo sapiens, UniProt Q9Y5X4); assay type: functional, cell-based;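 also: CHO-S cells with Gal4-NCOR and VP16-NR2E3 two-hybrid luciferase reporter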
Photoreceptor-specific nuclear receptor, sequence (Q9Y5X4 whole entry, the tested form may be a part): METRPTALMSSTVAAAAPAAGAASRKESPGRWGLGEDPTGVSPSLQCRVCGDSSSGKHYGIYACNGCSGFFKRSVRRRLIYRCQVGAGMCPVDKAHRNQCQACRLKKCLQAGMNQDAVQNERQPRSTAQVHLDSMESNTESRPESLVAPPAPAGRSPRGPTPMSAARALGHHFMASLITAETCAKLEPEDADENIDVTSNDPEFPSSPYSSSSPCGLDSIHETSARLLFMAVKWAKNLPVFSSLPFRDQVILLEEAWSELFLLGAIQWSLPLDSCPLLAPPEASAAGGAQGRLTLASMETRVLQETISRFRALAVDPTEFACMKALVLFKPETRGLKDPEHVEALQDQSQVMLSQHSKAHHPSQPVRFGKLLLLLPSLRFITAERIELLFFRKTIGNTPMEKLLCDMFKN

## CCOC(=O)CSC1=NC(=O)/C(=C\c2ccc(OC(C)=O)cc2)S1
[1]
  AC50: 0.216 µM (active)
[2]
  AC50: 5.12 µM (active)
[3]
  AC50: 14.1 µM (inconclusive)
[4]
  EC50: > 99 µM (inactive)
[5]
  EC50: 10.5 µM (active)
[6]
  EC50: 10.4 µM (active)
[7]
  IC50: 35.2 µM (active)
[8]
  EC50: > 99 µM (inactive)
[9]
  EC50: 8.97 µM (active)

## O=C(Cc1ccc(S(=O)(=O)N2CCOCC2)s1)Nc1ccc(Br)c(C(F)(F)F)c1
[10]
  IC50: 20.9 µM (inactive)
[11]
  IC50: 19.2 µM (inactive)
[12]
  IC50: 46.7 µM (inactive)

## Cc1ccc(SCCC(=O)N/N=C/c2cccnc2)cc1
[10]
  IC50: 25.9 µM (inactive)
[11]
  IC50: 29.2 µM (inactive)
[12]
  IC50: 83.3 µM (inactive)

## COc1cc(Nc2ccc(C(=O)O)cc2[N+](=O)[O-])cc(OC)c1
[13]
  EC50: > 104 µM (inactive)

## Cc1ccc(/N=C2\C(=O)Nc3ccccc32)cc1
[14]
  IC50: > 40 µM (not active)
[15]
  EC50: > 40 µM (inactive)

## O=C(CNc1cccc(Cl)c1)c1ccc(Cl)cc1
[14]
  IC50: 5.07 µM (active)
[15]
  EC50: > 40 µM (inactive)

## CC(=O)Nc1ccc(S(=O)(=O)N2CCN=C2SCc2ccc([N+](=O)[O-])cc2)cc1
[16]
  AC50: 0.252 µM (active)
[17]
  IC50: 2.82 µM (active)
